Literature values in patent publication US20150050358A1, “IMPLANT SUPPORT COMPOSITION AND METHODS OF USE” (REGENTS OF THE UNIVERSITY OF MINNESOTA, priority 2013, published 2015).

Conditions: antibiotic solution

SMILES: Cc1ncc([N+](=O)[O-])n1CCO [metronidazole]
- pH of solution: 4.5-7.0 pH
